Results reported in BindingDB's records for doi:10.1021/jm5001979 (Amgen, 2014).
pEC50: −log10 of the molar value.

Test: Induction of GK translocation from nucleus to cytoplasm of mouse hepatocytes preincubated for 20 mins followed by glucose challenge measured after 40 mins by Hoechst 33342 staining-based assay

| SMILES | pEC50 |
| --- | --- |
| Nc1ccc(S(=O)(=O)N2CCN(c3ccc(C(O)(C(F)(F)F)C(F)(F)F)cn3)CC2)cn1 | < 4.90 |
| Nc1ccc(S(=O)(=O)N2CCN(c3ncc(C(O)(C(F)(F)F)C(F)(F)F)cc3C#CC3CC3)CC2)cn1 | 5.47 |
| CCn1cc(-c2cc(C(O)(C(F)(F)F)C(F)(F)F)cnc2N2CCN(S(=O)(=O)c3ccc(N)nc3)CC2)cn1 | 7.09 |
| COc1cncc(-c2cc(C(O)(C(F)(F)F)C(F)(F)F)cnc2N2CCN(S(=O)(=O)c3ccc(N)nc3)CC2)c1 | 5.85 |
| CC(C)n1cc(-c2cc(C(O)(C(F)(F)F)C(F)(F)F)cnc2N2CCN(S(=O)(=O)c3ccc(N)nc3)CC2)cn1 | 5.97 |
| Nc1ccc(S(=O)(=O)N2CCN(c3ncc(C(O)(C(F)(F)F)C(F)(F)F)cc3-c3ccc4c(c3)CC(=O)N4)CC2)cn1 | 6.51 |
| Nc1ccc(S(=O)(=O)N2CCN(c3ncc(C(O)(C(F)(F)F)C(F)(F)F)cc3Cl)CC2)cn1 | 5.20 |
| Nc1ccc(S(=O)(=O)N2CCN(c3ncc(C(O)(C(F)(F)F)C(F)(F)F)cc3C#CCO)CC2)cn1 | 6.29 |
| Cc1csc(-c2cc(C(O)(C(F)(F)F)C(F)(F)F)cnc2N2CCN(S(=O)(=O)c3ccc(N)nc3)CC2)c1 | 5.92 |
| Cc1nc2cc(-c3cc(C(O)(C(F)(F)F)C(F)(F)F)cnc3N3CCN(S(=O)(=O)c4ccc(N)nc4)CC3)ccc2o1 | 6.45 |
| Nc1ccc(S(=O)(=O)N2CCN(c3ncc(C(O)(C(F)(F)F)C(F)(F)F)cc3-c3ccc4ocnc4c3)CC2)cn1 | 6.38 |
| Nc1ccc(S(=O)(=O)N2CCN(c3ncc(C(O)(C(F)(F)F)C(F)(F)F)cc3-c3ccc4[nH]ncc4c3)CC2)cn1 | 5.58 |
| CC(C)(O)C#Cc1cc(C(O)(C(F)(F)F)C(F)(F)F)cnc1N1CCN(S(=O)(=O)c2ccc(N)nc2)CC1 | 5.67 |
| Nc1ccc(S(=O)(=O)N2CCN(c3ncc(C(O)(C(F)(F)F)C(F)(F)F)cc3Br)CC2)cn1 | 5.27 |
| Nc1ccc(S(=O)(=O)N2CCN(c3ncc(C(O)(C(F)(F)F)C(F)(F)F)cc3-c3cnccc3F)CC2)cn1 | 5.89 |
| CC(C)(C)n1cc(-c2cc(C(O)(C(F)(F)F)C(F)(F)F)cnc2N2CCN(S(=O)(=O)c3ccc(N)nc3)CC2)cn1 | 5.61 |
| Cc1c(-c2cc(C(O)(C(F)(F)F)C(F)(F)F)cnc2N2CCN(S(=O)(=O)c3ccc(N)nc3)CC2)cnn1C | 5.90 |
| CN1C(=O)Cc2cc(-c3cc(C(O)(C(F)(F)F)C(F)(F)F)cnc3N3CCN(S(=O)(=O)c4ccc(N)nc4)CC3)ccc21 | 6.63 |
| Nc1ccc(S(=O)(=O)N2CCN(c3ncc(C(O)(C(F)(F)F)C(F)(F)F)cc3-c3ccc4scnc4c3)CC2)cn1 | 5.94 |
| Nc1ccc(S(=O)(=O)N2CCN(c3ncc(C(O)(C(F)(F)F)C(F)(F)F)cc3C#CCCO)CC2)cn1 | 5.70 |
| COCC#Cc1cc(C(O)(C(F)(F)F)C(F)(F)F)cnc1N1CCN(S(=O)(=O)c2ccc(N)nc2)CC1 | 6.60 |

Second part, the compound after the results:

| pEC50 | SMILES |
| --- | --- |
| 4.95 | Nc1ccc(S(=O)(=O)N2CCN(c3ncc(C(O)(C(F)(F)F)C(F)(F)F)cc3-c3cc[nH]n3)CC2)cn1 |
| 5.85 | COc1ccc(-c2cc(C(O)(C(F)(F)F)C(F)(F)F)cnc2N2CCN(S(=O)(=O)c3ccc(N)nc3)CC2)cn1 |
| 5.56 | Nc1ccc(S(=O)(=O)N2CCN(c3ncc(C(O)(C(F)(F)F)C(F)(F)F)cc3-c3cc4ccccc4s3)CC2)cn1 |
| 5.86 | Nc1ccc(S(=O)(=O)N2CCN(c3ncc(C(O)(C(F)(F)F)C(F)(F)F)cc3-c3ccc(F)cc3)CC2)cn1 |
| 5.53 | CS(=O)(=O)c1ccc(-c2cc(C(O)(C(F)(F)F)C(F)(F)F)cnc2N2CCN(S(=O)(=O)c3ccc(N)nc3)CC2)cc1 |
| 6.11 | Nc1ccc(S(=O)(=O)N2CCN(c3ncc(C(O)(C(F)(F)F)C(F)(F)F)cc3-c3ccccc3)CC2)cn1 |
| 6.25 | Nc1ccc(S(=O)(=O)N2CCN(c3ncc(C(O)(C(F)(F)F)C(F)(F)F)cc3-c3ccccc3O)CC2)cn1 |
| 7.28 | Cn1cc(-c2cc(C(O)(C(F)(F)F)C(F)(F)F)cnc2N2CCN(S(=O)(=O)c3ccc(N)nc3)CC2)cn1 |
| 6.10 | Cc1cncc(-c2cc(C(O)(C(F)(F)F)C(F)(F)F)cnc2N2CCN(S(=O)(=O)c3ccc(N)nc3)CC2)c1 |
| < 4.90 | Nc1ccc(S(=O)(=O)N2CCN(c3ncc(C(O)(C(F)(F)F)C(F)(F)F)cc3-c3ccc4sccc4c3)CC2)cn1 |
| < 4.90 | Nc1ccc(S(=O)(=O)N2CCN(c3ncc(C(O)(C(F)(F)F)C(F)(F)F)cc3-c3cncc(F)c3)CC2)cn1 |
| 5.33 | Cc1ccc(-c2cc(C(O)(C(F)(F)F)C(F)(F)F)cnc2N2CCN(S(=O)(=O)c3ccc(N)nc3)CC2)cn1 |
| 5.95 | Nc1ccc(S(=O)(=O)N2CCN(c3ncc(C(O)(C(F)(F)F)C(F)(F)F)cc3-c3cc4ccccc4[nH]3)CC2)cn1 |
| 6.10 | Nc1ccc(S(=O)(=O)N2CCN(c3ncc(C(O)(C(F)(F)F)C(F)(F)F)cc3-c3ccccc3F)CC2)cn1 |
| 6.12 | NC(=O)c1cccc(-c2cc(C(O)(C(F)(F)F)C(F)(F)F)cnc2N2CCN(S(=O)(=O)c3ccc(N)nc3)CC2)c1 |
| 5.55 | Nc1ccc(S(=O)(=O)N2CCN(c3ncc(C(O)(C(F)(F)F)C(F)(F)F)cc3-c3cccc(F)c3)CC2)cn1 |
| 5.76 | Nc1ccc(S(=O)(=O)N2CCN(c3ncc(C(O)(C(F)(F)F)C(F)(F)F)cc3-c3ccoc3)CC2)cn1 |
| 6.03 | Nc1ccc(S(=O)(=O)N2CCN(c3ncc(C(O)(C(F)(F)F)C(F)(F)F)cc3-c3ccncc3)CC2)cn1 |
